From patent publication US11065231B2, “Compounds and methods for the targeted degradation of interleukin-1 receptor- associated kinase 4 polypeptides” (Arvinas Operations, Inc., priority 2017, dated 2021)
Read-outs that look alike come from different tables or passages of the source.

Assays:
[1] = molecular target: T1, IRAK4 (Homo sapiens (Human), UniProt Q9NWZ3); experiment: Western blot assay for assessing degradation of IRAK4 in MCF7 cells; type: cell-based
Protocol: Western Blot Assay for Assessing Degradation of IRAK4.
MCF7 cells, purchased from ATCC (Manassas, Va.), were used at a passage range of 2-19. Cells were seeded at 50% confluency in 96-well plates at 180 μl/well in cell media (Dulbecco's Modified Eagle medium/nutrient F-12 Ham-10% Fetal Bovine Serum) and incubated overnight. The next morning, compounds were serially diluted and added (20 μl into 180 μl media) at a final DMSO concentration of 0.1%. Cells were rinsed with cell media and replaced with compounds in media, followed by incubation overnight. After a 24 hour incubation with compound, cell were harvested (90-100% confluent at harvest). Cells were then washed once with 100 μl of Dulbecco's hosphate-buffered saline and then lysed with 40 μl of lysis buffer (1×RIPA+HALT protease inhibitor+HALT phosphatase inhibitor) on ice for 10 minutes. Lysates were then cleaned by filtration in 1.2 µm filter plates followed by western blotting. For each sample, 30 μl of lysate were added to 10 μl of 4×LDS sample buffer, then denatured at 95° C. for 5 minutes in the thermal cycler and placed on ice. Fifteen μL of each sample were then loaded on 4-15% Tris/Glycine gels and run for 25 minutes at 250 (constant) volts in 1× Tris/Glycine buffer. Protein was transferred from gels to nitrocellulose using a BioRad Turbo dry-transfer unit with the Turbo/midi default program. All blots were rinsed with ddH2O and blocked for 1 hour at room temperature in 5% bovine serum albumin (BSA) in tris-buffered saline-Tween 20 (TBS-T) (0.1%) on rocker. Blots were exposed to primary antibody in 5% BSA in TBS-T (0.1%) overnight at 4° C. on rocker. Primary antibodies, diluted 1:1000 in […], were as follows: anti-IRAK4 (cat. #: ab119942, Abcam, Cambridge, Mass.), anti-IRAK1 (cat. #: CST 4504S, Cell Signaling Technology, Danvers, Mass.), and anti-Beta-actin (Cat. #: ab8227, Abcam, Cambridge, Mass.). Blots were then washed with TBS-T (0.1%) three times for 5 minutes on a rocker at room temperature. Secondary antibody (1:18,000 anti-rabbit-HRP and/or anti-mouse-HRP in 5% BSA in TBST (0.1%) was then added, and blots incubated at room temperature rocker for 1 hour. Blots were washed 3 times in TBS-T (0.1%) for 5 minutes at room temperature on the rocker. Signal was developed with Femto Max substrate for 5 minutes and blots read on a ChemiDoc. Percent degradation was assessed by comparing IRAK4 signal in compound vs. DMSO treated lysates.

[2] = molecular target: T1, IRAK4; experiment: Biochemical Z'-Lyte FRET assay for IRAK4 kinase inhibition; settings: 2 nM enzyme, 1 mM ATP, 2 μM substrate
Protocol: Biochemical Assay for IRAK4 Kinase Inhibition.
A Z′-Lyte assay based on a fluorescence resonance energy transfer (FRET) readout was developed for measuring IRAK4-dependent phosphorylation of a FRET-peptide substrate as described by Thermo Fisher Scientific (Grand Island, N.Y.). At a starting concentration of 1.5 mM, the identified compounds were serially diluted with 100% dimethyl sulfoxide (DMSO) in 3-fold increments, into Greiner bio-one 96-well plates (cat. #: 650201, Greiner bio-one, Monroe, N.C.). Compounds were then transferred to intermediate Greiner bio-one 96-well plates and diluted 10-fold with Kinase assay buffer (25 mM HEPES, pH 7.5, 10 mM MgCl2, 10 mM MnCl2, 1 mM EGTA, and 0.01% Brij-35, 2 mM DTT). Three μL of the serially diluted compounds were then transferred in duplicate to low-volume 384-well black proxiplates (cat. #: 6008269; Perkin Elmer, Akron, Ohio), to give duplicate twelve-point concentration curves. Six μl of a 2.5× solution of IRAK4 enzyme (cat #: 40064, BPS Bioscience, San Diego, Calif.) in kinase buffer was added to each well, followed by a 10 minutes pre-incubation step. Reactions were initiated by adding 6 μl of a 2.5× substrate mix of ATP and Z′-Lyte Ser/Thr 7 peptide (cat. #: PV3180, Thermo Fisher Scientific, Grand Island, N.Y.) and proceeded at room temperature for 1 hour. The final concentration of key reagents in the 15 uL kinase reactions were 2 μM substrate, 2 nM enzyme, and 1 mM ATP, with dose responses starting at 30 μM compound. At the end of the kinase reactions, 5 μl of developing solution (as instructed in for cat. #: PV3180, Thermo Fisher Scientific, Grand Island, N.Y.) was added to each well and incubated at room temperature for 1 hour. All wells were read on an Envision 2105 Multilabel fluorescence plate reader (Perkin Elmer, Waltham, Mass.) at 400 nm excitation and 460 nm/530 nm emission. Plus and minus 100% inhibition controls were used to calculate percent inhibition and IC50 curves were generated using Graphpad Prism (La Jolla, Calif.).

[3] = Table 5, IRAK4 degradation, 24 hour incubation, read-out: IRAK4 DC50

T1 sequence (Q9NWZ3 whole entry): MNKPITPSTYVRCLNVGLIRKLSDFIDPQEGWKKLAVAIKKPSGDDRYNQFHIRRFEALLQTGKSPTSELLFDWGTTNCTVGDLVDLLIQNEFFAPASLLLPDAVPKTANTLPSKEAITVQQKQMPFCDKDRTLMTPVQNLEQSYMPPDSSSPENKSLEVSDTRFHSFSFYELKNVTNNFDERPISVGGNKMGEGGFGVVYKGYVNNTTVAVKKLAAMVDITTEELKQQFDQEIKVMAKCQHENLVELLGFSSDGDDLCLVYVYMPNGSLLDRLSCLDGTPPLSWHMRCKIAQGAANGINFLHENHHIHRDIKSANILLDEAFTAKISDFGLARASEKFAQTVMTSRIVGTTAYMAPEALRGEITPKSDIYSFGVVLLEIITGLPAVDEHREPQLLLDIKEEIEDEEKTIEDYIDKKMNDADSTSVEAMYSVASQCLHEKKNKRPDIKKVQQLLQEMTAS

DC50 [1, 3] [nM]	IC50 [2] [nM]	DC50 ([1]; Table 1, 24 hours, read-out: IRAK4 by western DC50) [nM]	DC50 ([1]; western blot, 24 hour incubation, read-out: DC50 (IRAK4 degradation)) [nM]	Structure (SMILES)
≥ 1000	< 30	–	–	Cc1ncsc1-c1ccc(CNC(=O)[C@@H]2C[C@@H](O)CN2C(=O)[C@@H](NC(=O)COCCOCCOCCOCCN2CCN(Cc3ccc4c(c3)nc(NC(=O)c3cccc(C(F)(F)F)c3)n4C3CCC(CO)CC3)CC2)C(C)(C)C)cc1 (mixture of isomers) [compound 14, (2S,4R)-1-((S)-2-(tert-butyl)-17-(4-((1-((1SR,4SR)-4-(hydroxymethyl)cyclohexyl)-2-(3-(trifluoromethyl)benzamido)-1H-benzo[d]imidazol-5-yl)methyl)piperazin-1-yl)-4-oxo-6,9,12-tetraoxa-3-azatetradecanoyl)-4-hydroxy-N-(4-(4-methylthiazol-5-yl)benzyl)pyrrolidine-2-carboxamide]
≥ 1000	≥ 1000	–	–	N#Cc1ccc2ncnc(N[C@H]3CC[C@H](N4CCN(S(=O)(=O)CCOCCOCCOCCOCCOc5ccc6c(c5)C(=O)N(C5CCC(=O)NC5=O)C6=O)CC4)CC3)c2c1 (stereo partly drawn) [compound 40]
≥ 1000	≥ 1000	–	–	COc1cccc(-n2c(NC(=O)c3cccc(C(F)(F)F)c3)nc3cc(CN4CCN(CCOc5ccc6c(c5)C(=O)N(C5CCC(=O)NC5=O)C6=O)CC4)ccc32)c1 (stereo not drawn) [compound 56, N-(5-((4-(2-((2-(2,6-dioxopiperidin-3-yl)-1,3-dioxoisoindolin-5-yl)oxy)ethyl)piperazin-1-yl)methyl)-1-(3-methoxyphenyl)-1H-benzo[d]imidazol-2-yl)-3-(trifluoromethyl)benzamide]
≥ 1000	≥ 1000	–	–	COc1cccc(-n2c(NC(=O)c3cccc(C(F)(F)F)c3)nc3cc(CN4CCN(CCOCCOCCOc5ccc6c(c5)C(=O)N(C5CCC(=O)NC5=O)C6=O)CC4)ccc32)c1 (stereo not drawn) [compound 54, N-(5-((4-(2-(2-(2-((2-(2,6-dioxopiperidin-3-yl)-1,3-dioxoisoindolin-5-yl)oxy)ethoxy)ethoxy)ethyl)piperazin-1-yl)methyl)-1-(3-methoxyphenyl)-1H-benzo[d]imidazol-2-yl)-3-(trifluoromethyl)benzamide]
≥ 1000	30 to 100	–	–	Cc1ncsc1-c1ccc(CNC(=O)[C@@H]2C[C@@H](O)CN2C(=O)[C@@H](NC(=O)COCCOCCN2CCN(Cc3ccc4c(c3)nc(NC(=O)c3cccc(C(F)(F)F)c3)n4[C@H]3CC[C@@H](CO)CC3)CC2)C(C)(C)C)cc1 (racemic) [compound 12, (2S,4R)-4-hydroxy-1-((S)-2-(2-(2-(2-(4-((1-((1SR,4SR)-4-(hydroxymethyl)cyclohexyl)-2-(3-(trifluoromethyl)benzamido)-1H-benzo[d]imidazol-5-yl)methyl)piperazin-1-yl)ethoxy)ethoxy)acetamido)-3,3-dimethylbutanoyl)-N-(4-(4-methylthiazol-5-yl)benzyl)pyrrolidine-2-carboxamide]
≥ 1000	≥ 1000	–	–	N#Cc1ccc2ncnc(N[C@H]3CC[C@H](N4CCN(S(=O)(=O)CCOCCOCCOc5ccc6c(c5)C(=O)N(C5CCC(=O)NC5=O)C6=O)CC4)CC3)c2c1 (stereo partly drawn) [compound 36]
< 30	< 30	10	9.7	O=C1CCC(N2C(=O)c3ccc(OCCOCCN4CCN(Cc5ccc6c(c5)nc(NC(=O)c5cccc(C(F)(F)F)c5)n6[C@H]5CC[C@@H](CO)CC5)CC4)cc3C2=O)C(=O)N1 (stereo partly drawn) [compound 2, N-(5-((4-(2-(2-((2-(2,6-dioxopiperidin-3-yl)-1,3-dioxoisoindolin-5-yl)oxy)ethoxy)ethyl)piperazin-1-yl)methyl)-1-((1s,4s)-4-(hydroxymethyl)cyclohexyl)-1H-benzo[d]imidazol-2-yl)-3-(trifluoromethyl)benzamide]
≥ 1000	≥ 1000	–	–	N#Cc1ccc2ncnc(N[C@H]3CC[C@H](N4CCN(CCOCCOCCOCCOc5ccc6c(c5)C(=O)N(C5CCC(=O)NC5=O)C6=O)CC4)CC3)c2c1 (stereo partly drawn) [compound 32]
